Results as given in patent US10166225B2, “Method for treating osteoporosis” (Exelixis, Inc., priority 2011, dated 2019).
“Also recorded” adds a separate entry of the source.

Legend:
[1] = test system: KS483 mouse osteoprogenitor cells; assay: Osteoblast differentiation assay (cellular ALP activity at day 8); format: cell-based
Protocol: In the third part, KS483 mouse osteoprogenitor cells were cultured for 8 days, after which the formed mature osteoblasts were quantitated by measuring the amount of intracellular alkaline phosphatase (ALP) activity. […] The effects on osteoblasts were studied using KS483 mouse osteoprogenitor cells that can be induced to differentiate into bone-forming osteoblasts. […] In the osteoblast differentiation assay, the cells were cultured for 8 days, after which the formed mature osteoblasts were quantitated by measuring the amount of intracellular alkaline phosphatase (ALP) activity. […] A culture system was established that can be used as an in vitro model for studying the effects of anabolic and estrogen-like compounds on osteoblast differentiation and activity. In this culture system mouse KS483 cells first proliferate and then differentiate into osteoblasts capable of forming mineralized bone nodules in the presence of ascorbic acid and ß-glycerophosphate (Fagerlund et al. 2009). The test and reference compounds are added into the cell cultures concomitantly with the medium change, and their effects on the differentiation and activity of osteoblasts are determined. Cellular ALP, a marker of osteoblast differentiation, is determined from the cell lysates as described earlier (Lowry et al. 1954). Secreted PINP, a marker of organic bone matrix formation, is determined from the culture medium using a commercially available method (Rat/Mouse PINP EIA, IDS Ltd, Boldon, UK). Calcium deposition, an index of inorganic bone matrix formation, is measured using a commercially available calcium assay (Roche Diagnostics). Mouse KS483 cells were cultured in T-75 tissue culture flasks in aMEM supplemented with 10% charcoal-stripped fetal bovine serum until 80-90% confluence. The cells were incubated in a CO2 incubator in humidified atmosphere of 95% air and 5% carbon dioxide at 37° C. After reaching 80-90% confluence, subcultures were prepared. Cells were removed from the flasks with trypsin treatment and counted. For induction of the maturation of osteoblasts and bone formation, the immature osteoblastic cells were plated in type I collagen-coated 96-well plates. The cells were cultured for 8 days with a supplement of ascorbic acid ([…]), and half of the media was changed every 3-4 days. The test compound and control substance (E2) were added in the beginning of the culture period and when the medium was changed. The cultures were stopped at day 8 by removing the culture media from the wells, and cell lysates were prepared. Cellular ALP activity and total protein content (Protein Assay, Bio-Rad Laboratories Inc, CA, USA) were quantitated by using VICTOR2™ Multilabel Counter (PerkinElmer, Waltham, Mass., USA).

[2] = test system: rat ovariectomy (OVX) model; assay: Short-term effects on body weight, uterine weight and bone turnover markers in the rat ovariectomy (OVX) model; format: in vivo, rat (Sprague-Dawley); set-up: key to Body weight, change during the first week / Body weight, change during the in-life phase / Relative uterine weight at day 14 / Serum PINP levels, change during the in-life phase / Serum OC levels, change during the in-life phase / Serum CTX levels, change during the in-life phase / Serum TRACP 5b activity, change during the in-life phase: An upwards arrow (↑) indicates a statistically significant increase; a downwards arrow (↓) a statistically significant decrease; One asterisk (*) indicates a statistical significance with a p-value<0.05; two asterisks (**) with a p-value<0.01; three asterisks (***) with a p-value<0.001; NS=Non-significant; conditions: for Body weight, change during the first week / Body weight, change during the in-life phase / Relative uterine weight at day 14 / Serum CTX levels, change during the in-life phase / Serum OC levels, change during the in-life phase / Serum PINP levels, change during the in-life phase / Serum TRACP 5b activity, change during the in-life phase: OVX rats vs OVX vehicle
Description: The objective of this study was to investigate short-term effects of Compound 1 on biochemical serum markers of bone metabolism in a prevention study in a rat ovariectomy (OVX) model for postmenopausal osteoporosis. 17β-estradiol (E2) was used as a reference compound. The following five experimental groups were included in the study:
Each group contained eight female rats (Sprague-Dawley) that were three months of age at the beginning of in-life phase of the study. Before the start of the in-life phase, animals were weighed, their blood samples were harvested, and animals were randomized to study groups by stratification according to body weight and serum levels of procollagen type I N-terminal propeptide (PINP). At the beginning of the in-life phase, animals were weighed and operated. Treatment was started one day after the operations and continued once a day for two weeks. Sterile water was used as vehicle in groups 1 and 2. Body weight was determined after one week of treatment and treatment doses were adjusted accordingly. After two weeks of treatment, animals were weighed, their blood samples were harvested, animals were terminated, and their relative uterine weight was determined. For analyzing short-term effects of treatments, levels of four bone metabolism biomarkers were determined in serum samples harvested before the start and at the end of the in-life phase. These biomarkers included PINP as a marker of bone formation, N-terminal mid-fragment of osteocalcin (OC) as a general marker of bone turnover, C terminal cross-linked telopeptides of type I collagen (CTX) as a marker of bone resorption, and tartrate-resistant acid phosphatase isoform 5b (TRACP 5b) as a marker of osteoclast number. Serum levels at day −7 were used as baseline levels and serum levels at day 14 as levels affected by operations and treatments.
Each group contained eight female rats (Sprague-Dawley) that were three months of age at the beginning of in-life phase of the study. Animals were randomized to study groups by stratification according to their body weight and serum levels of procollagen type I N-terminal propeptide (PINP) measured one week before the start of the in-life phase (at day −7). At the beginning of the in-life phase (at day 0), animals were weighed, animals in groups 2-5 were ovariectomized, and animals in group 1 SHAM-operated. Treatment was started one day after the operations and continued once a day for two weeks (up to day 13). Sterile water was used as vehicle in groups 1 and 2. Body weight was determined at the beginning of the in-life phase (at day 0), one week after the start of the inlife phase (at day 7), and at the end of the in-life phase (at day 14). Treatment doses were adjusted according to the latest body weight obtained. After two weeks of treatment (at day 14), animals were weighed, their blood samples were harvested, animals were terminated, and their relative uterine weight was determined. For analyzing short-term effects of treatments, levels of four bone metabolism biomarkers were measured in serum samples harvested before the start of the in-life phase (at day −7) and at the end of the in-life phase (at day 14). These biochemical serum markers included PINP, N-terminal mid-fragment of osteocalcin (OC), C-terminal cross-linked telopeptides of type I collagen (CTX), and tartrate-resistant acid phosphatase isoform 5b (TRACP 5b). Serum levels obtained at day −7 were used as baseline levels and serum levels obtained at day 14 as levels affected by surgical operations and treatments.
Biochemical markers of bone metabolism are useful tools for monitoring osteoporosis therapy and for prediction of fracture risk and long-term changes in bone mineral density (Cremers et al. 2008). […]

[3] = OVX rats, Compound 1 oral dose of 3 mg/kg/d, two weeks
[4] = OVX rats, Compound 1 oral doses of 1 and 3 mg/kg/d, two weeks

## COc1cc2nccc(Oc3ccc(NC(=O)C4(C(=O)Nc5ccc(F)cc5)CC4)cc3)c2cc1OC [Compound 1, N-(4-{[6,7-bis(methyloxy)quinolin-4-yl]oxy}phenyl)-N′-(4-fluorophenyl)cyclopropane-1,1-dicarboxamide]
[1]; 3.0 μM
  ALP values / osteoblast differentiation: decreased; also recorded: inhibitory effects
[1]; 0.012, 0.037, 0.11, 0.33 and 1.0 μM
  ALP values / osteoblast differentiation: increased; also recorded: dose-dependent stimulation
[1]; Mus musculus, Osteoblast, 192 h, 0.004 μM Compound 1, read-out: ALP Activity at Day 8, Percent Activity (%) Compared to BL
  activity at 0.004 µM: 109%
[1]; Mus musculus, Osteoblast, 192 h, 0.012 μM Compound 1, read-out: ALP Activity at Day 8, Percent Activity (%) Compared to BL
  activity at 0.012 µM: 113%
[1]; Mus musculus, Osteoblast, 192 h, 0.037 μM Compound 1, read-out: ALP Activity at Day 8, Percent Activity (%) Compared to BL
  activity at 0.037 µM: 134%
[1]; Mus musculus, Osteoblast, 192 h, 0.11 μM Compound 1, read-out: ALP Activity at Day 8, Percent Activity (%) Compared to BL
  activity at 0.11 µM: 181%
[1]; Mus musculus, Osteoblast, 192 h, 0.33 μM Compound 1, read-out: ALP Activity at Day 8, Percent Activity (%) Compared to BL
  activity at 0.33 µM: 166%
[1]; Mus musculus, Osteoblast, 192 h, 1.0 μM Compound 1, read-out: ALP Activity at Day 8, Percent Activity (%) Compared to BL
  activity at 1 µM: 117%
[1]; Mus musculus, Osteoblast, 192 h, 3.0 μM Compound 1, read-out: ALP Activity at Day 8, Percent Activity (%) Compared to BL
  activity at 3 µM: 57%
[2]; cabozantinib 1 mg/kg/d p.o.
  Body weight, change during the first week: ↓ *
  Body weight, change during the in-life phase: ↓ *
  Relative uterine weight at day 14: NS
  Serum CTX levels, change during the in-life phase: NS
  Serum OC levels, change during the in-life phase: NS
  Serum PINP levels, change during the in-life phase: NS
  Serum TRACP 5b activity, change during the in-life phase: NS
[2]; cabozantinib 3 mg/kg/d p.o.
  Body weight, change during the first week: NS
  Body weight, change during the in-life phase: NS
  Relative uterine weight at day 14: NS
  Serum CTX levels, change during the in-life phase: NS
  Serum OC levels, change during the in-life phase: NS
  Serum PINP levels, change during the in-life phase: ↑ *
  Serum TRACP 5b activity, change during the in-life phase: ↓ *
[2]; OVX rats, Compound 1 oral dose of 1 mg/kg/d, two weeks
  OVX-induced gain in body weight: partially prevented
[2]; [3]
  OVX-induced increase in serum PINP levels: enhanced
  OVX-induced reduction in serum TRACP 5b activity: enhanced
[2]; [4]
  OVX-induced increase in serum CTX levels: did not affect
  OVX-induced increase in serum OC levels: did not affect
  OVX-induced reduction in relative uterine weight: did not affect
